Reference: ChEMBL document CHEMBL3739415, “Synthesis of functionalized new conjugates of batracylin with tuftsin/retro-tuftsin derivatives and their biological evaluation” (Eur J Med Chem, 2015)
Active and inactive are the calls of the source. The calls are words filed in the database; no cut-off is given here. Non-standard residues stand in square brackets, D forms with d. Residues, ends and D or L forms follow the SMILES beside them. *: point of attachment. Batracylin(8-NH) = O=C1c2ccccc2C2=Nc3ccc(N*)cc3CN12; Arg(NO2) = N=C(NCCC[C@H](N)C(=O)O)N[N+](=O)[O-]

Columns and labels:
[1] = test system: P388; test: Cytotoxicity against mouse P388 cells after 120 hrs by MTT assay; format: functional, cell-based; settings: P388, 120 h
[2] = Cytotoxicity against human HL60 cells after 120 hrs by MTT assay; format: functional, cell-based; settings: HL-60, 120 h
[3] = test system: L1210; test: Cytotoxicity against mouse L1210 cells after 120 hrs by MTT assay; format: functional, cell-based; settings: L1210, 120 h
[4] = test system: MCF7; test: Cytotoxicity against human MCF7 cells after 120 hrs by MTT assay; format: functional, cell-based; settings: MCF7, 120 h
[5] = test system: A549; test: Cytotoxicity against human A549 cells after 120 hrs by MTT assay; format: functional, cell-based; settings: A549, 120 h
[6] = test system: A549; test: Induction of DNA damage in human A549 cells assessed as phosphorylation of H2AX histone at IC90 after 3 hrs by fluorescence microscopy; format: functional, cell-based
[7] = test system: HT-29; test: Cytotoxicity against human HT-29 cells after 120 hrs by MTT assay; format: functional, cell-based; settings: HT-29, 120 h
[8] = test system: LNCaP; test: Cytotoxicity against human LNCAP cells after 120 hrs by MTT assay; format: functional, cell-based
[9] = test system: HL-60; test: Induction of apoptosis in human HL60 cells assessed as fraction of polyploid cells at IC90 up to 120 hrs using Hoechst-33342 staining by fluorescent microscope analysis relative to BAT; format: functional, cell-based
[10] = test system: HL-60; test: Induction of apoptosis in human HL60 cells assessed as increase of debris fraction at IC90 up to 120 hrs using Hoechst-33342 staining by fluorescent microscope analysis relative to BAT; format: functional, cell-based
[11] = Cytotoxicity against mouse WEHI1640 cells after 120 hrs by MTT assay; format: functional, cell-based; settings: WEHI1640, 120 h
[12] = molecular target: DNA topoisomerase 2-alpha (Homo sapiens) (UniProt P11388); test: Inhibition of human topoisomerase-2alpha-mediated relaxation of supercoiled plasmid pBR322 DNA after 30 mins by ethidium bromide staining
Sequence of DNA topoisomerase 2-alpha (Homo sapiens) (P11388 whole entry): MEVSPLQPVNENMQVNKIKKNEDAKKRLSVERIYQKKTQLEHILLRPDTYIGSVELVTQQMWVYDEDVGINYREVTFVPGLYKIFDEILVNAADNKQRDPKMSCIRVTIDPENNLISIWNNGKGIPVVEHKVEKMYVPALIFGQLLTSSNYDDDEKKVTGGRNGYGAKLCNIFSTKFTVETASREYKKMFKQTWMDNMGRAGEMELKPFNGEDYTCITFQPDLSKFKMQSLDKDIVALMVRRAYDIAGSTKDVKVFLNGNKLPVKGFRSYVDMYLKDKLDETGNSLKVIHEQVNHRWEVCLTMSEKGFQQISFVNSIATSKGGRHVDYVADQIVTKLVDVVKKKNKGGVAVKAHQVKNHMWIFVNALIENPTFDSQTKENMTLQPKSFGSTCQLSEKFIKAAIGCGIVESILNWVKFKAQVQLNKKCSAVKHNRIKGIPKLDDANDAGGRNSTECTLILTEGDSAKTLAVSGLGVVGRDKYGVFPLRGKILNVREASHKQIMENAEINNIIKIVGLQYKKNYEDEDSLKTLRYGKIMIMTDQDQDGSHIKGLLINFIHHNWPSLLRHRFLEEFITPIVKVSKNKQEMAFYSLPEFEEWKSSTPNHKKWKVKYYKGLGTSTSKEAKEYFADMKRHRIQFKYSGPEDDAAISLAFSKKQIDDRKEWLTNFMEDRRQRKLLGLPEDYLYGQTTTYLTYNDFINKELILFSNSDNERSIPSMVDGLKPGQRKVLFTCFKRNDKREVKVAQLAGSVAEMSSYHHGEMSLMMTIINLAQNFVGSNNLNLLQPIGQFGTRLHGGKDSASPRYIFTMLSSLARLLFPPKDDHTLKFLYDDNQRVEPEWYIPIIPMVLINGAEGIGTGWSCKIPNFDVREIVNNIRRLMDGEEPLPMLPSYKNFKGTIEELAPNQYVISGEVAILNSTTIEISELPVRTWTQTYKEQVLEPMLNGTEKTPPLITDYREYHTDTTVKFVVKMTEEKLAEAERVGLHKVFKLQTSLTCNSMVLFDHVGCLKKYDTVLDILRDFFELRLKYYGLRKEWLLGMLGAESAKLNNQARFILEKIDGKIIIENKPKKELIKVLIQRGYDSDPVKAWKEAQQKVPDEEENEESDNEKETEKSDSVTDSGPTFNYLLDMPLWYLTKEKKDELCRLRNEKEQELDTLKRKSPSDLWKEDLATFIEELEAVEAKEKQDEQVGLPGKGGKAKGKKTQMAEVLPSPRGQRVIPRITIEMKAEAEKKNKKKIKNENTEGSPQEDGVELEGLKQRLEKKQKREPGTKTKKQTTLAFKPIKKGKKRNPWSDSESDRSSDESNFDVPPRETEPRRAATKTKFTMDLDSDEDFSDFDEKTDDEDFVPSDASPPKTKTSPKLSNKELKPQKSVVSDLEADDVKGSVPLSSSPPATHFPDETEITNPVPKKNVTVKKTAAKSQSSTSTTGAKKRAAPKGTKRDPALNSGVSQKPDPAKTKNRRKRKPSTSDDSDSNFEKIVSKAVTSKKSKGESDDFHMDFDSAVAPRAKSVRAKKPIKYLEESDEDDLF

[13] = Cytotoxicity against mouse NIH/3T3 cells after 120 hrs by MTT assay; format: functional, cell-based; settings: NIH3T3, 120 h
[14] = test system: A549; test: Induction of apoptosis in human A549 cells assessed as change in nuclear and cellular morphology at IC90 up to 120 hrs using Hoechst-33342 staining by fluorescent microscope analysis; format: functional, cell-based
[15] = molecular target: T1, DNA topoisomerase 1 (Homo sapiens) (UniProt P11387); test: Inhibition of human topoisomerase-1-mediated relaxation of supercoiled plasmid pBR322 DNA at 1 to 100 uM after 30 mins by ethidium bromide staining
T1 sequence (whole entry): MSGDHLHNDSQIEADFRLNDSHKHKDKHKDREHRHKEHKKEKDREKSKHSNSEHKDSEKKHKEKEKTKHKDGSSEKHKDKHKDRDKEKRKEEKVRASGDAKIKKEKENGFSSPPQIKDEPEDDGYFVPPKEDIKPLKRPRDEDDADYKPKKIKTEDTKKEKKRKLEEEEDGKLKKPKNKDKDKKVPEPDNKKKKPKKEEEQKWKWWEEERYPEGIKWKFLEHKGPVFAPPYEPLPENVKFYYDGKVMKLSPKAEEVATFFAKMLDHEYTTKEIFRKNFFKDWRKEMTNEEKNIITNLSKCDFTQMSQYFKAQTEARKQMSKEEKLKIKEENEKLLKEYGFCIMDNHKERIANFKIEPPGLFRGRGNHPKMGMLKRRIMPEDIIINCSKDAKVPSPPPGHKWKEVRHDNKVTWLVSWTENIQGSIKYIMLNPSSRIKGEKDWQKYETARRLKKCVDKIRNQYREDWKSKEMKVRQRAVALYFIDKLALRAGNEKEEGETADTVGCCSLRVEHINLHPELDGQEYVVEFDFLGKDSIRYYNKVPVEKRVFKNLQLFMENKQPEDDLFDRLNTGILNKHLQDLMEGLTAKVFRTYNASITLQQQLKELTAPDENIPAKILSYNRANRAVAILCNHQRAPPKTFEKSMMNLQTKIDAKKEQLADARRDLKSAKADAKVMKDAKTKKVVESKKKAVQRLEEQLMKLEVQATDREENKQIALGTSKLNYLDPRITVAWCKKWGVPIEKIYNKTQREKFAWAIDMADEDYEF

[16] = Cell cycle arrest in human HL60 cells assessed as abnormal mitotic figures at IC90 after 24 to 120 hrs using propidium iodide staining by flow cytometry analysis; format: functional, cell-based; settings: HL-60
[17] = Cytotoxicity against human HCT116 cells after 120 hrs by MTT assay; format: functional, cell-based; settings: HCT-116, 120 h
[18] = test system: HL-60; test: Induction of apoptosis in human HL60 cells assessed as micronucleated cells at IC90 up to 120 hrs using Hoechst-33342 staining by fluorescent microscope analysis relative to BAT; format: functional, cell-based
[19] = test system: A549; test: Cell cycle arrest in human A549 cells assessed as accumulation at G2/M phase at IC90 after 120 hrs using propidium iodide staining by flow cytometry analysis; format: functional, cell-based
[20] = test system: A549; test: Cell cycle arrest in human A549 cells assessed as accumulation at G2/M phase at IC90 after 24 hrs using propidium iodide staining by flow cytometry analysis; format: functional, cell-based
[21] = Cell cycle arrest in human HL60 cells assessed as accumulation at G2/M phase at IC90 after 24 to 120 hrs using propidium iodide staining by flow cytometry analysis; format: functional, cell-based; settings: HL-60
[22] = test system: A549; test: Ratio of BAT IC50 to compound IC50 for human A549 cells after 120 hrs by MTT assay; format: functional
[23] = test system: HL-60; test: Ratio of BAT IC50 to compound IC50 for human HL60 cells after 120 hrs by MTT assay; format: functional
[24] = test system: A549; test: Induction of apoptosis in human A549 cells assessed as increase of debris fraction at IC90 up to 120 hrs using Hoechst-33342 staining by fluorescent microscope analysis relative to BAT; format: functional

Nc1ccc2c(c1)CN1C(=O)c3ccccc3C1=N2 [DANIQUIDONE]
IC50 [1]: > 100 µM
IC50 [2]: 66.6 µM
IC50 [3]: > 100 µM
IC50 [4]: > 100 µM
IC50 [5]: 46.3 µM
Activity [6]: Active
IC50 [7]: 64.3 µM
IC50 [8]: 90.2 µM
Activity [9]: Active
Activity [10]: Active
IC50 [11]: 58.4 µM
inhibition [12]: Dose-dependent effect
IC50 [13]: 69.9 µM
Activity [14]: inactive
inhibition [15]: inactive
Activity [16]: Active
IC50 [17]: 88.7 µM
Activity [18]: Active
Activity [19]: Active
Activity [20]: Active
Activity [21]: inactive

CC[C@H](C)[C@H](N)C(=O)NCCCC[C@H](NC(=O)[C@@H](N)[C@@H](C)O)C(=O)N1CCC[C@H]1C(=O)N[C@@H](CCCNC(=N)N[N+](=O)[O-])C(=O)Nc1ccc2c(c1)CN1C(=O)c3ccccc3C1=N2 (H-TK(Ile)P[Arg(NO2)]-{Batracylin(8-NH)})
IC50 [2]: 15.4 µM
IC50 [5]: 17.4 µM
inhibition [12]: Dose-dependent effect
inhibition [15]: inactive

CC(C)[C@H](N)C(=O)NCCCC[C@H](NC(=O)[C@@H]1CCCN1C(=O)[C@@H](N)CCCNC(=N)N[N+](=O)[O-])C(=O)N[C@H](C(=O)Nc1ccc2c(c1)CN1C(=O)c3ccccc3C1=N2)[C@@H](C)O (H-[Arg(NO2)]PK(Val)T-{Batracylin(8-NH)})
IC50 [2]: 11 µM
IC50 [5]: 13.1 µM

CC(C)C[C@H](N)C(=O)NCCCC[C@H](NC(=O)[C@@H](N)[C@@H](C)O)C(=O)N1CCC[C@H]1C(=O)N[C@@H](CCCNC(=N)N[N+](=O)[O-])C(=O)Nc1ccc2c(c1)CN1C(=O)c3ccccc3C1=N2 (H-TK(Leu)P[Arg(NO2)]-{Batracylin(8-NH)})
IC50 [2]: 83.7 µM
IC50 [5]: > 100 µM
inhibition [12]: Dose-dependent effect
inhibition [15]: inactive

C[C@@H](O)[C@H](N)C(=O)N[C@@H](CCCCNC(=O)CN)C(=O)N1CCC[C@H]1C(=O)N[C@@H](CCCNC(=N)N[N+](=O)[O-])C(=O)Nc1ccc2c(c1)CN1C(=O)c3ccccc3C1=N2 (H-TK(Gly)P[Arg(NO2)]-{Batracylin(8-NH)})
IC50 [2]: > 100 µM
IC50 [5]: > 100 µM

C[C@@H](O)[C@H](NC(=O)[C@H](CCCCNC(=O)CN)NC(=O)[C@@H]1CCCN1C(=O)[C@@H](N)CCCNC(=N)N[N+](=O)[O-])C(=O)Nc1ccc2c(c1)CN1C(=O)c3ccccc3C1=N2 (H-[Arg(NO2)]PK(Gly)T-{Batracylin(8-NH)})
IC50 [2]: 28.7 µM
IC50 [5]: > 100 µM

C[C@@H](O)[C@H](NC(=O)[C@H](CCCCN)NC(=O)[C@@H]1CCCN1C(=O)[C@@H](N)CCCNC(=N)N[N+](=O)[O-])C(=O)Nc1ccc2c(c1)CN1C(=O)c3ccccc3C1=N2 (H-[Arg(NO2)]PKT-{Batracylin(8-NH)})
IC50 [2]: 30.8 µM
IC50 [5]: 8.7 µM
Ratio IC50 [22]: 5
Ratio IC50 [23]: 2

C[C@H](N)C(=O)NCCCC[C@H](NC(=O)[C@@H]1CCCN1C(=O)[C@@H](N)CCCNC(=N)N[N+](=O)[O-])C(=O)N[C@H](C(=O)Nc1ccc2c(c1)CN1C(=O)c3ccccc3C1=N2)[C@@H](C)O (H-[Arg(NO2)]PK(Ala)T-{Batracylin(8-NH)})
IC50 [2]: 11.1 µM
IC50 [5]: 5.6 µM

C[C@@H](O)[C@H](N)C(=O)N[C@@H](CCCCN)C(=O)N1CCC[C@H]1C(=O)N[C@@H](CCCNC(=N)N[N+](=O)[O-])C(=O)Nc1ccc2c(c1)CN1C(=O)c3ccccc3C1=N2 (H-TKP[Arg(NO2)]-{Batracylin(8-NH)})
IC50 [2]: 77.3 µM
IC50 [5]: 52.8 µM
Activity [6]: Active
Activity [9]: Active
Activity [10]: Active
fold change (FC) [24]: 3.5
Activity [14]: inactive
Activity [16]: Active
Activity [18]: Active
Activity [19]: Active
Activity [20]: Active
Activity [21]: inactive

CC(C)[C@H](N)C(=O)NCCCC[C@H](NC(=O)[C@@H](N)[C@@H](C)O)C(=O)N1CCC[C@H]1C(=O)N[C@@H](CCCNC(=N)N[N+](=O)[O-])C(=O)Nc1ccc2c(c1)CN1C(=O)c3ccccc3C1=N2 (H-TK(Val)P[Arg(NO2)]-{Batracylin(8-NH)})
IC50 [2]: > 100 µM
IC50 [5]: > 100 µM

CC[C@H](C)[C@H](N)C(=O)NCCCC[C@H](NC(=O)[C@@H]1CCCN1C(=O)[C@@H](N)CCCNC(=N)N[N+](=O)[O-])C(=O)N[C@H](C(=O)Nc1ccc2c(c1)CN1C(=O)c3ccccc3C1=N2)[C@@H](C)O (H-[Arg(NO2)]PK(Ile)T-{Batracylin(8-NH)})
IC50 [2]: 4.7 µM
IC50 [5]: 4.8 µM
Ratio IC50 [22]: >=10
inhibition [12]: Dose-dependent effect
inhibition [15]: inactive
Ratio IC50 [23]: >=10

C[C@H](N)C(=O)NCCCC[C@H](NC(=O)[C@@H](N)[C@@H](C)O)C(=O)N1CCC[C@H]1C(=O)N[C@@H](CCCNC(=N)N[N+](=O)[O-])C(=O)Nc1ccc2c(c1)CN1C(=O)c3ccccc3C1=N2 (H-TK(Ala)P[Arg(NO2)]-{Batracylin(8-NH)})
IC50 [2]: 19.6 µM
IC50 [5]: 5.9 µM

CC(C)C[C@H](N)C(=O)NCCCC[C@H](NC(=O)[C@@H]1CCCN1C(=O)[C@@H](N)CCCNC(=N)N[N+](=O)[O-])C(=O)N[C@H](C(=O)Nc1ccc2c(c1)CN1C(=O)c3ccccc3C1=N2)[C@@H](C)O (H-[Arg(NO2)]PK(Leu)T-{Batracylin(8-NH)})
IC50 [2]: 5.3 µM
IC50 [5]: 4 µM
Activity [6]: Active
Ratio IC50 [22]: >=10
Activity [9]: Active
Activity [10]: Active
inhibition [12]: Dose-dependent effect
Activity [14]: inactive
inhibition [15]: inactive
Activity [16]: Active
Activity [18]: Active
Activity [19]: Active
Ratio IC50 [23]: >=10
Activity [20]: Active
Activity [21]: inactive
